Columns and labels:
Assay in all cases: relative viability (nuclei count vs DMSO), 5 days (fraction); higher = more cells survive
[1] = compound: C[C@]12O[C@H](C[C@]1(O)CO)n1c3ccccc3c3c4c(c5c6ccccc6n2c5c31)CNC4=O [Lestaurtinib] + C[C@@H](Oc1cc(-c2cnn(C3CCNCC3)c2)cnc1N)c1c(Cl)ccc(F)c1Cl [Crizotinib] (partner 1 µM)
Method in brief: (§1)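 Dosing by pin tool came one day after lung cancer cell lines were seeded in 1536-well plates, using either one drug or a fixed anchor-drug dose plus five library-drug doses (not always all listed) in √10 steps. After 5 days, nuclei were counted on 4× images. Relative viability is treated-well nuclei count divided by vehicle-well nuclei count, and values are medians of duplicate plates.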

Lestaurtinib + OSI-027 = compound: C[C@]12O[C@H](C[C@]1(O)CO)n1c3ccccc3c3c4c(c5c6ccccc6n2c5c31)CNC4=O [Lestaurtinib] + COc1cccc2cc(-c3nc([C@H]4CC[C@H](C(=O)O)CC4)n4ncnc(N)c34)[nH]c12 [OSI-027] (partner 0.5 µM)
Method in brief: as §1

[2] = compound: C1/C(=C\C2=CC=CS2)/C(=O)/C(=C/C3=CC=CS3)/C1 + O=C(CCCCCCC(=O)Nc1ccccc1)NO [Vorinostat] (partner 1 µM)
Method in brief: as §1

Cell Line	relative viability ([1]; first compound 0.005 µM)	relative viability ([1]; first compound 0.01581 µM)	relative viability ([1]; first compound 0.05 µM)	relative viability ([1]; first compound 0.1581 µM)	relative viability ([1]; first compound 0.5 µM)	relative viability (Lestaurtinib + OSI-027; first compound 0.005 µM)	relative viability (Lestaurtinib + OSI-027; first compound 0.01581 µM)	relative viability (Lestaurtinib + OSI-027; first compound 0.05 µM)	relative viability (Lestaurtinib + OSI-027; first compound 0.1581 µM)	relative viability (Lestaurtinib + OSI-027; first compound 0.5 µM)	relative viability ([2]; first compound 0.2 µM)	relative viability ([2]; first compound 0.6325 µM)	relative viability ([2]; first compound 2 µM)	relative viability ([2]; first compound 6.325 µM)	relative viability ([2]; first compound 20 µM)
HCC-366	0.711	0.649	0.418	0.758	0.219	1.03	1.03	0.827	0.353	0.198	0.41	0.381	0.373	0.324	0.425
SK-LU-1	0.663	0.915	0.433	0.516	0.312	0.296	0.255	0.211	0.295	0.181	0.849	0.764	0.75	0.677	0.774
HCC-44	0.878	0.822	0.685	0.929	0.607	0.548	0.654	0.462	0.659	0.705	1.09	1.08	1.01	0.995	1.03
A-427	0.999	0.842	0.501	0.411	0.125	0.473	0.402	0.257	0.233	0.146	0.884	0.838	0.855	0.828	0.89
SW 1573	0.929	0.88	0.544	0.423	0.343	0.67	0.561	0.482	0.449	0.131	0.756	0.971	0.89	0.721	0.808
NCI-H322M	0.931	0.919	0.495	0.482	0.41	0.561	0.525	0.427	0.498	0.372	0.902	0.892	1.03	0.865	0.917
ABC-1	1.15	1.58	0.92	0.882	0.26	0.505	0.65	0.342	0.456	0.175	1.17	0.964	1.5	0.724	1.24
LK-2	0.241	0.264	0.267	0.188	0.188	0.158	0.224	0.176	0.185	0.173	0.255	0.337	0.432	0.324	0.32
NCI-H2023	0.635	0.619	0.723	0.654	0.113	0.375	0.407	0.341	0.296	0.104	0.722	0.67	0.727	0.582	0.539
NCI-H596	0.851	1.05	0.805	1.02	0.923	0.743	0.818	0.647	0.717	0.65	0.532	0.469	0.609	0.612	0.727
SK-MES-1	1.02	0.964	0.92	0.505	0.281	0.536	0.486	0.407	0.342	0.151	1.18	1.13	1.1	0.985	1.11
NCI-H2405	0.852	0.87	0.767	0.698	0.578	0.647	0.685	0.59	0.487	0.414	0.991	1.02	1.08	0.876	1.14
LCLC-103H	1.11	1.02	0.867	0.761	0.593	0.442	0.49	0.349	0.385	0.286	0.805	0.842	0.859	0.698	0.765
NCI-H460	1.16	0.905	0.448	0.676	0.516	0.498	0.859	0.359	0.229	0.204	0.859	0.724	0.783	0.398	0.635
NCI-H1755	0.865	0.645	0.724	0.438	0.268	0.814	0.706	0.471	0.406	0.338	0.725	0.857	0.745	0.777	0.716
NCI-H358	0.61	0.297	0.402	0.31	0.0912	0.658	0.629	0.285	0.232	0.0986	0.8	0.814	0.704	0.511	0.773
NCI-H1734	0.741	0.649	0.538	0.424	0.205	0.678	0.571	0.368	0.362	0.187	0.82	0.875	0.837	0.745	0.865
EPLC-272H	0.939	0.65	0.458	0.574	0.581	0.288	0.278	0.222	0.223	0.166	0.464	0.384	0.615	0.318	0.358
NCI-H2126	1.06	1.1	0.835	0.973	0.682	0.6	0.844	0.665	0.658	0.539	0.742	0.774	0.809	0.717	0.781

From the supplement of paper PMC10307832
